Results published in US10758518B2, “Compounds and compositions for treating hematological disorders” (Curis, Inc., priority 2017, dated 2020).

Experiments:
[1] = test system: ABC-DLBCL cell line OCI-Ly10 (MYD88-L265P, CD79A ITAM); test: In vivo tumor growth inhibition in ABC-DLBCL tumor model (OCI-Ly10 xenograft); details: OCI-Ly10 in female SCID Beige mice; 21 continuous days qd po; Compound A 50 mg/kg, venetoclax 75 mg/kg
Protocol: Female SCID Beige mice were implanted with the ABC-DLBCL cell line OCI-Ly10, which harbors TLR (MYD88-L265P) and BCR (CD79A ITAM) pathway activating mutations. The mice were treated with Compound A (50 mg/kg, qd, po, suspension in 0.5% Tween 20 and 0.25% hydroxyethyl cellulose), venetoclax (75 mg/kg, qd, po, solution in 60% phosal 50PG, 30% PEG 400, and 10% ethanol) or the combination for 21 continuous days.
After the 21-day drug treatment period, the mice were given a 19-day dosing holiday. […] After the 19-day drug holiday, dosing of the respective drug treatments was reinstated to each cohort.

[2] = test system: SU-DHL-2 cells (MYD88-S222R); test: In vivo tumor growth inhibition in ABC-DLBCL tumor model (SU-DHL-2 xenograft); details: SU-DHL-2 in female SCID Beige mice; 27 continuous days qd po; Compound A/CA-4948 100 mg/kg, venetoclax 75 mg/kg
Protocol: Female SCID Beige mice were implanted with SU-DHL-2 cells which harbor MYD88-S222R pathway activating mutations. The mice were treated with Compound A (100 mg/kg, qd, po, suspension in 0.5% Tween 20 and 0.25% hydroxyethyl cellulose), venetoclax (75 mg/kg, qd, po, solution in 60% phosal 50PG, 30% PEG 400, and 10% ethanol) or the combination for 27 continuous days.
All in life data acquisition, including body weight, tumor length, tumor diameter, tumor ulceration, clinical signs and animal mortality was collected in Study Director. Tumor ulceration was scored on a 6 level system with severity of 4 or higher requiring attention. At the end of the study (24 hours after the last dose), all surviving animals were examined externally for possible clinical abnormalities or adverse clinical signs, weighed and tumor measurements were taken for the last time.

[3] = test system: OCI-LY3; test: ABC-DLBCL MYD88-L265P xenograft tumor model, OCI-LY3; assay type: in vivo
[4] = test system: OCI-LY10; test: ABC-DLBCL MYD88-L265P xenograft tumor model, OCI-LY10 (dose response); assay type: in vivo
[5] = test system: ABC-DLBCL PDX tumors; test: ABC-DLBCL PDX tumors (MYD88 and CD79B double mutants); assay type: in vivo; details: activating mutations in TLR/IL-1R and BCR pathways (MYD88 and CD79B double mutants)

Structure (SMILES) | tumor growth inhibition (TGI) [1] [%] | TGI % (Day 28) [2] [%] | efficacy in xenograft tumor model [3] | efficacy in xenograft tumor model [4] | efficacy in PDX tumors [5]
Cc1cc(-c2nc(C(=O)Nc3cc4oc(N5CCOCC5)nc4nc3N3CC[C@@H](O)C3)co2)ccn1 [Compound A] | 63 | 66 | dose-dependent efficacy | dose-dependent efficacy | efficacious
CC1(C)CCC(CN2CCN(c3ccc(C(=O)NS(=O)(=O)c4ccc(NCC5CCOCC5)c([N+](=O)[O-])c4)c(Oc4cnc5[nH]ccc5c4)c3)CC2)=C(c2ccc(Cl)cc2)C1 [venetoclax, reference compound] | 71 | – | – | – | –
